Data reported in article PMC5218480 (PLoS ONE, 2017).

Test system: MV-4-11 cells
Assay: Gene expression microarray analysis (Affymetrix PrimeView) and GSEA
Format: cell-based, human
Set-up: RFU PODN (11730768_x_at) / Fold change /veh PODN (11730768_x_at) / RFU LINC00158 (11744669_a_at) / Fold change /veh LINC00158 (11744669_a_at) / RFU DUSP10 (11751237_a_at) / Fold change /veh DUSP10 (11751237_a_at) / RFU ID3 (11757404_x_at) / Fold change /veh ID3 (11757404_x_at) / RFU PLEKHG5 (11737974_s_at) / Fold change /veh PLEKHG5 (11737974_s_at) / RFU LRRC4B (11730491_at) / Fold change /veh LRRC4B (11730491_at) / RFU GIMAP4 (11747438_a_at) / Fold change /veh GIMAP4 (11747438_a_at) / RFU KRT8 (11758183_x_at) / Fold change /veh KRT8 (11758183_x_at) / RFU CNN1 (11734310_a_at) / Fold change /veh CNN1 (11734310_a_at) / RFU VPS37D (11726825_at) / Fold change /veh VPS37D (11726825_at) / RFU C10orf10 (11716522_x_at) / Fold change /veh C10orf10 (11716522_x_at) / RFU KIR2DL2 /// KIR2DL4 /// KIR2DL5A /// KIR2DL5B /// KIR2DS1 /// KIR2DS2 /// KIR2DS3 /// KIR2DS4 /// KIR3DL3 /// KIR3DL3 /// KIR3DS1 (11738374_at) / Fold change /veh KIR2DL2 /// KIR2DL4 /// KIR2DL5A /// KIR2DL5B /// KIR2DS1 /// KIR2DS2 /// KIR2DS3 /// KIR2DS4 /// KIR3DL3 /// KIR3DL3 /// KIR3DS1 (11738374_at) / RFU C1QL1 (11718748_at) / Fold change /veh C1QL1 (11718748_at) / RFU TMPRSS4 (11747572_a_at) / Fold change /veh TMPRSS4 (11747572_a_at) / RFU HAMP (11756126_x_at) / Fold change /veh HAMP (11756126_x_at) / RFU RNFT2 (11725882_a_at) / Fold change /veh RNFT2 (11725882_a_at) / RFU NR4A2 (11747474_a_at) / Fold change /veh NR4A2 (11747474_a_at) / RFU ABCC12 (11746883_a_at) / Fold change /veh ABCC12 (11746883_a_at) / RFU TMEM136 (11760407_x_at) / Fold change /veh TMEM136 (11760407_x_at) / RFU CLDN22 /// WWC2 (11732394_at) / Fold change /veh CLDN22 /// WWC2 (11732394_at) / RFU HLA-DPB1 (11760878_x_at) / Fold change /veh HLA-DPB1 (11760878_x_at) / RFU SPINT1 (11716480_a_at) / Fold change /veh SPINT1 (11716480_a_at) / RFU GAP43 (11754022_s_at) / Fold change /veh GAP43 (11754022_s_at) / RFU A4GNT (11735810_at) / Fold change /veh A4GNT (11735810_at) / RFU PRB3 (11715151_x_at) / Fold change /veh PRB3 (11715151_x_at) / RFU TUBB4B (11761932_at) / Fold change /veh TUBB4B (11761932_at) / RFU CAPN14 (11732068_a_at) / Fold change /veh CAPN14 (11732068_a_at) / RFU TMCC2 (11721928_a_at) / Fold change /veh TMCC2 (11721928_a_at) / RFU IRGQ (11745062_a_at) / Fold change /veh IRGQ (11745062_a_at) / RFU FAM174B (11720279_a_at) / Fold change /veh FAM174B (11720279_a_at) / RFU TMPRSS4 (11748680_a_at) / Fold change /veh TMPRSS4 (11748680_a_at) / RFU FAM212B (11763350_a_at) / Fold change /veh FAM212B (11763350_a_at) / RFU PLEKHG5 (11743358_a_at) / Fold change /veh PLEKHG5 (11743358_a_at) / RFU ZSCAN30 (11745921_a_at) / Fold change /veh ZSCAN30 (11745921_a_at) / RFU CMKLR1 (11741424_a_at) / Fold change /veh CMKLR1 (11741424_a_at) / RFU LOC101060620 /// MAPK8IP1 (11723275_at) / Fold change /veh LOC101060620 /// MAPK8IP1 (11723275_at) / RFU SPTSSB (11747773_x_at) / Fold change /veh SPTSSB (11747773_x_at) / RFU PRSS12 (11739890_at) / Fold change /veh PRSS12 (11739890_at) / RFU BIN1 (11741810_x_at) / Fold change /veh BIN1 (11741810_x_at) / RFU WNT11 (11732464_a_at) / Fold change /veh WNT11 (11732464_a_at) / RFU C10orf10 (11716521_a_at) / Fold change /veh C10orf10 (11716521_a_at) / RFU C5orf56 (11738089_at) / Fold change /veh C5orf56 (11738089_at) / RFU CYB561 (11721691_x_at) / Fold change /veh CYB561 (11721691_x_at) / RFU ANKRD19P (11752326_a_at) / Fold change /veh ANKRD19P (11752326_a_at) / RFU OR2T12 /// OR2T33 /// OR2T8 (11738714_s_at) / Fold change /veh OR2T12 /// OR2T33 /// OR2T8 (11738714_s_at) / RFU VCAN (11748164_a_at) / Fold change /veh VCAN (11748164_a_at) / RFU JSRP1 (11732532_at) / Fold change /veh JSRP1 (11732532_at) / RFU KRTAP10-11 (11738290_x_at) / Fold change /veh KRTAP10-11 (11738290_x_at) / RFU MYO3A (11730013_a_at) / Fold change /veh MYO3A (11730013_a_at) / RFU EBF3 (11725865_a_at) / Fold change /veh EBF3 (11725865_a_at) / RFU CAMK2N1 (11719241_x_at) / Fold change /veh CAMK2N1 (11719241_x_at) / RFU C5orf56 (11738088_a_at) / Fold change /veh C5orf56 (11738088_a_at) / RFU OLFML3 (11715873_a_at) / Fold change /veh OLFML3 (11715873_a_at) / RFU LOC100653217 /// NTM (11731650_a_at) / Fold change /veh LOC100653217 /// NTM (11731650_a_at) / RFU MAPK11 (11762145_a_at) / Fold change /veh MAPK11 (11762145_a_at) / RFU FIZ1 (11724087_x_at) / Fold change /veh FIZ1 (11724087_x_at) / RFU OASL (11726364_x_at) / Fold change /veh OASL (11726364_x_at) / RFU SOX15 (11748057_x_at) / Fold change /veh SOX15 (11748057_x_at) / RFU CD79A (11719716_a_at) / Fold change /veh CD79A (11719716_a_at) / RFU HIST1H1D (11736915_at) / Fold change /veh HIST1H1D (11736915_at) / RFU CASKIN2 (11723855_a_at) / Fold change /veh CASKIN2 (11723855_a_at) / RFU LOC730098 (11760151_x_at) / Fold change /veh LOC730098 (11760151_x_at) / RFU OR4N2 (11742367_at) / Fold change /veh OR4N2 (11742367_at) / RFU PRRT2 (11749266_a_at) / Fold change /veh PRRT2 (11749266_a_at) / RFU SNX32 (11753110_a_at) / Fold change /veh SNX32 (11753110_a_at) / RFU CDHR5 (11726645_a_at) / Fold change /veh CDHR5 (11726645_a_at) / RFU RCAN1 (11760418_a_at) / Fold change /veh RCAN1 (11760418_a_at) / RFU FAM167A (11723789_a_at) / Fold change /veh FAM167A (11723789_a_at) / RFU FAM26E (11764081_at) / Fold change /veh FAM26E (11764081_at) / RFU ISYNA1 (11749810_s_at) / Fold change /veh ISYNA1 (11749810_s_at) / RFU ACY1 (11761880_at) / Fold change /veh ACY1 (11761880_at) / RFU 11764098_at / Fold change /veh 11764098_at / RFU SAMD14 (11745864_x_at) / Fold change /veh SAMD14 (11745864_x_at) / RFU NPB (11741838_a_at) / Fold change /veh NPB (11741838_a_at) / RFU TMPRSS6 (11731388_a_at) / Fold change /veh TMPRSS6 (11731388_a_at) / RFU KRTAP10-2 (11738614_at) / Fold change /veh KRTAP10-2 (11738614_at) / RFU ARHGAP8 /// PRR5-ARHGAP8 (11727945_x_at) / Fold change /veh ARHGAP8 /// PRR5-ARHGAP8 (11727945_x_at) / RFU KRTAP5-7 /// NADSYN1 (11734609_at) / Fold change /veh KRTAP5-7 /// NADSYN1 (11734609_at) / RFU RASL12 (11751679_a_at) / Fold change /veh RASL12 (11751679_a_at) / RFU CDKN2B (11736163_a_at) / Fold change /veh CDKN2B (11736163_a_at) / RFU PRF1 (11729649_at) / Fold change /veh PRF1 (11729649_at) / RFU, ZNF638 /// ZNF638-IT1 / Fold change vs veh, ZNF638 /// ZNF638-IT1 / RFU, PANK3 / Fold change vs veh, PANK3 / RFU, SH3YL1 / Fold change vs veh, SH3YL1 / RFU, ZEB2 / Fold change vs veh, ZEB2 / RFU, NRIP1 / Fold change vs veh, NRIP1 / RFU, PTTG1IP / Fold change vs veh, PTTG1IP / RFU, CAPN2 / Fold change vs veh, CAPN2 / RFU, MED14 / Fold change vs veh, MED14 / RFU, SNORA58 / Fold change vs veh, SNORA58 / RFU, C1orf63 / Fold change vs veh, C1orf63 / RFU, LRRFIP1 / Fold change vs veh, LRRFIP1 / RFU, NDUFAF7 / Fold change vs veh, NDUFAF7 / RFU, SLC12A2 / Fold change vs veh, SLC12A2 / RFU, IBTK / Fold change vs veh, IBTK / RFU, ESF1 / Fold change vs veh, ESF1 / Fold change vs veh, TMEM50B / RFU, TAOK1 / Fold change vs veh, TAOK1 / RFU, ACBD3 / Fold change vs veh, ACBD3 / RFU, TMA16 / Fold change vs veh, TMA16 / RFU, RWDD3 / Fold change vs veh, RWDD3 / RFU, BCAT1 / Fold change vs veh, BCAT1 / RFU, EDEM3 / Fold change vs veh, EDEM3 / RFU, TMEM33 / Fold change vs veh, TMEM33 / RFU, WDR75 / Fold change vs veh, WDR75 / RFU, AHCTF1 / Fold change vs veh, AHCTF1 / RFU, TFRC / Fold change vs veh, TFRC / RFU, ZDHHC17 / Fold change vs veh, ZDHHC17 / RFU, NOM1 / Fold change vs veh, NOM1 / RFU, ARL8B / Fold change vs veh, ARL8B / RFU, ZBTB11 / Fold change vs veh, ZBTB11 / RFU, TAMM41 / Fold change vs veh, TAMM41 / RFU, KIAA1704 /// LOC100996395 / Fold change vs veh, KIAA1704 /// LOC100996395 / RFU, ING1 / Fold change vs veh, ING1 / RFU, TRMT61B / Fold change vs veh, TRMT61B / RFU, FUBP3 / Fold change vs veh, FUBP3 / RFU, TP53 / Fold change vs veh, TP53 / RFU, TNKS2 / Fold change vs veh, TNKS2 / RFU, ZFP14 / Fold change vs veh, ZFP14 / RFU, ACTR2 / Fold change vs veh, ACTR2 / RFU, PPP3R1 / Fold change vs veh, PPP3R1 / RFU, PIK3R1 / Fold change vs veh, PIK3R1 / RFU, HNRNPA1 / Fold change vs veh, HNRNPA1 / RFU, RNF170 / Fold change vs veh, RNF170 / RFU, ZNF28 / Fold change vs veh, ZNF28 / RFU, RNGTT / Fold change vs veh, RNGTT / RFU, OGT / Fold change vs veh, OGT / RFU, BRD1 / Fold change vs veh, BRD1 / RFU, MARS / Fold change vs veh, MARS / RFU, ZNF655 / Fold change vs veh, ZNF655 / RFU, FAHD1 / Fold change vs veh, FAHD1 / RFU, BDP1 / Fold change vs veh, BDP1 / RFU, LRRCC1 / Fold change vs veh, LRRCC1 / RFU, ARID1A / Fold change vs veh, ARID1A / RFU, ZNF146 / Fold change vs veh, ZNF146 / RFU, ZNF330 / Fold change vs veh, ZNF330 / RFU, GPN3 / Fold change vs veh, GPN3 / RFU, C9orf123 / Fold change vs veh, C9orf123 / RFU, N4BP2L2 / Fold change vs veh, N4BP2L2 / RFU, ARFIP1 / Fold change vs veh, ARFIP1 / RFU, FAM179B / Fold change vs veh, FAM179B / RFU, BCL10 / Fold change vs veh, BCL10 / RFU, UHRF1BP1L / Fold change vs veh, UHRF1BP1L / RFU, BET1 / Fold change vs veh, BET1 / RFU, CNOT2 / Fold change vs veh, CNOT2 / RFU, ZNF268 / Fold change vs veh, ZNF268 / Fold change vs veh, ZNF507 / RFU, DGCR2 / Fold change vs veh, DGCR2 / RFU, WDSUB1 / Fold change vs veh, WDSUB1 / Fold change vs veh, HSP90B1 /// MIR3652 / RFU, ADSS / Fold change vs veh, ADSS / RFU, GK / Fold change vs veh, GK / RFU, ZNF148 / Fold change vs veh, ZNF148 / RFU, TAF9 / Fold change vs veh, TAF9 / RFU, SLC1A5 / Fold change vs veh, SLC1A5 / RFU, SLMO2 / Fold change vs veh, SLMO2 / RFU, ABCC4 / Fold change vs veh, ABCC4 / RFU, LOC101060439 /// RAP1B / Fold change vs veh, LOC101060439 /// RAP1B / RFU, RFX7 / Fold change vs veh, RFX7 / RFU, GTPBP10 / Fold change vs veh, GTPBP10 / RFU, CNEP1R1 / Fold change vs veh, CNEP1R1 / RFU, BIVM-ERCC5 /// ERCC5 / Fold change vs veh, BIVM-ERCC5 /// ERCC5 / RFU, ILF3 / Fold change vs veh, ILF3 / RFU 11762660_at / Fold change /veh 11762660_at / RFU VCAN (11757783_s_at) / Fold change /veh VCAN (11757783_s_at) / RFU DDX43 (11728927_at) / Fold change /veh DDX43 (11728927_at) / RFU KRT8 (11758188_x_at) / Fold change /veh KRT8 (11758188_x_at) / RFU NKD1 (11759106_at) / Fold change /veh NKD1 (11759106_at) / RFU SRD5A1 (11742802_a_at) / Fold change /veh SRD5A1 (11742802_a_at) / RFU TPSAB1 /// TPSB2 (11721975_s_at) / Fold change /veh TPSAB1 /// TPSB2 (11721975_s_at) / RFU GSTM3 (11746129_a_at) / Fold change /veh GSTM3 (11746129_a_at) / RFU IL23R (11737362_x_at) / Fold change /veh IL23R (11737362_x_at) / RFU TMEM51 (11727254_a_at) / Fold change /veh TMEM51 (11727254_a_at) / RFU PIWIL2 (11732686_x_at) / Fold change /veh PIWIL2 (11732686_x_at) / RFU ORM1 (11744905_x_at) / Fold change /veh ORM1 (11744905_x_at) / RFU CCDC152 (11743942_at) / Fold change /veh CCDC152 (11743942_at) / RFU ECM1 (11717891_a_at) / Fold change /veh ECM1 (11717891_a_at) / RFU IL23R (11748794_a_at) / Fold change /veh IL23R (11748794_a_at) / RFU TNFAIP8L3 (11732012_x_at) / Fold change /veh TNFAIP8L3 (11732012_x_at) / RFU MBOAT4 (11741988_at) / Fold change /veh MBOAT4 (11741988_at) / RFU 11764193_at / Fold change /veh 11764193_at / RFU TMEM53 (11763286_at) / Fold change /veh TMEM53 (11763286_at) / RFU MAGEB2 (11727129_at) / Fold change /veh MAGEB2 (11727129_at) / RFU TMEM200A (11744735_a_at) / Fold change /veh TMEM200A (11744735_a_at) / RFU CCDC152 (11751479_a_at) / Fold change /veh CCDC152 (11751479_a_at) / RFU FAM211A (11726209_a_at) / Fold change /veh FAM211A (11726209_a_at) / RFU RGS16 (11746705_a_at) / Fold change /veh RGS16 (11746705_a_at) / RFU VCAN (11755009_s_at) / Fold change /veh VCAN (11755009_s_at) / RFU RHOB (11743442_s_at) / Fold change /veh RHOB (11743442_s_at) / RFU RGS16 (11720943_a_at) / Fold change /veh RGS16 (11720943_a_at) / RFU RGS16 (11720944_at) / Fold change /veh RGS16 (11720944_at) / RFU, VPS4B / Fold change vs veh, VPS4B / RFU, CREB1 / Fold change vs veh, CREB1 / RFU, DNAJC13 / Fold change vs veh, DNAJC13 / RFU, GNAQ / Fold change vs veh, GNAQ / RFU, CDK5R1 / Fold change vs veh, CDK5R1 / RFU, ZRANB3 / Fold change vs veh, ZRANB3 / RFU, CUL4A / Fold change vs veh, CUL4A / RFU, CCNY / Fold change vs veh, CCNY / RFU, UFL1 / Fold change vs veh, UFL1 / RFU, COG3 / Fold change vs veh, COG3 / RFU, DIAPH2 / Fold change vs veh, DIAPH2 / RFU, SKA2 / Fold change vs veh, SKA2 / RFU, AFF3 / Fold change vs veh, AFF3 / RFU, LMF1 / Fold change vs veh, LMF1 / RFU, IPO11 / Fold change vs veh, IPO11 / RFU, DFFB / Fold change vs veh, DFFB / RFU, FOXP1 / Fold change vs veh, FOXP1 / RFU, CARD8 / Fold change vs veh, CARD8 / RFU, STRN3 / Fold change vs veh, STRN3 / RFU, ADK / Fold change vs veh, ADK / RFU, RASSF2 / Fold change vs veh, RASSF2 / RFU, WIPF1 / Fold change vs veh, WIPF1 / RFU, LARP1B / Fold change vs veh, LARP1B / RFU, RASA1 / Fold change vs veh, RASA1 / RFU, RB1 / Fold change vs veh, RB1 / RFU, PPFIA1 / Fold change vs veh, PPFIA1 / RFU, MAT2A / Fold change vs veh, MAT2A / RFU, CCT5 / Fold change vs veh, CCT5 / RFU, WDR92 / Fold change vs veh, WDR92 / RFU, CUX1 / Fold change vs veh, CUX1 / RFU, TTC7A / Fold change vs veh, TTC7A / RFU, TMEM135 / Fold change vs veh, TMEM135 / RFU, DEPTOR / Fold change vs veh, DEPTOR / RFU, CPM / Fold change vs veh, CPM / RFU, DNAJB6 / Fold change vs veh, DNAJB6 / RFU, CACNA2D3 / Fold change vs veh, CACNA2D3 / RFU, DTX4 / Fold change vs veh, DTX4 / RFU, TFCP2 / Fold change vs veh, TFCP2 / RFU, GMCL1 /// GMCL1P1 / Fold change vs veh, GMCL1 /// GMCL1P1 / RFU, AEBP2 / Fold change vs veh, AEBP2 / RFU, SNHG1 /// SNORD22 /// SNORD25 /// SNORD26 /// SNORD27 /// SNORD28 /// SNORD29 /// SNORD31 / Fold change vs veh, SNHG1 /// SNORD22 /// SNORD25 /// SNORD26 /// SNORD27 /// SNORD28 /// SNORD29 /// SNORD31 / Fold change (Aza/veh), C12orf56 (ProbeSet 11735607_a_at) / Fold change (ACY-1035/veh), C12orf56 (ProbeSet 11735607_a_at) / Fold change (Aza/veh), FGFR1OP (ProbeSet 11751329_s_at) / Fold change (ACY-1035/veh), FGFR1OP (ProbeSet 11751329_s_at) / Fold change (Aza/veh), VPS36 (ProbeSet 11739960_a_at) / Fold change (ACY-1035/veh), VPS36 (ProbeSet 11739960_a_at) / RFU SYPL1 (11715823_x_at) / Fold change /veh SYPL1 (11715823_x_at) / RFU IGFBP7 (11715501_s_at) / Fold change /veh IGFBP7 (11715501_s_at) / RFU REEP3 (11722064_at) / Fold change /veh REEP3 (11722064_at) / RFU IGLL1 (11728026_x_at) / Fold change /veh IGLL1 (11728026_x_at): dose or concentration left out as unconfirmed
Conditions: ProbeSet 11728879_at; LIST B

Nc1ncn([C@@H]2O[C@H](CO)[C@@H](O)[C@H]2O)c(=O)n1 [azacitidine]
Fold change vs veh, PPP3R1: 0.88
